Laboratory results: ChEMBL document CHEMBL1129201, “Synthesis and biological activity of 4-azido- and 4-trifluoracetamido-3-chloro-3-deamino-4-deoxydaunorubicin” (Bioorg Med Chem Lett, 1996)

Assays:
KB 3-1 = test: In vitro cytotoxicity using human epidermoid carcinoma (KB-3-1) cells; assay type: functional, cell-based
KB = test: In vitro cytotoxicity using human epidermoid carcinoma (KB-A1) cells; assay type: functional, cell-based
[1] = Resistant Factor against MDR cell lines. Value expressed as ratio of IC50 on the resistant cell and on the corresponding sensitive cells.; assay type: functional
L1210 = test: In vitro cytotoxicity using murine leukemia L1210 cells from american type culture collection.; assay type: functional, cell-based; conditions: Mus musculus

Row | Structure (SMILES) | IC50 (KB 3-1) [nM] | IC50 (KB) [nM] | RF [1] | IC50 (L1210) [nM]
1 | COc1cccc2c1C(=O)c1c(O)c3c(c(O)c1C2=O)C[C@@](O)(C(C)=O)C[C@@H]3OC1CC(Cl)C(NC(=O)C(F)(F)F)C(C)O1 (stereo partly specified) | 550 | 3790 | 6.9 | 500
2 | COc1cccc2c1C(=O)c1c(O)c3c(c(O)c1C2=O)C[C@@](O)(C(C)=O)C[C@@H]3O[C@H]1C[C@H](N)[C@H](O)[C@H](C)O1 [DAUNORUBICIN] | 7 | 2070 | 295.7 | 33
3 | COc1cccc2c1C(=O)c1c(O)c3c(c(O)c1C2=O)C[C@@](O)(C(C)=O)C[C@@H]3OC1CC(Cl)C(N=[N+]=[N-])C(C)O1 (stereo partly specified) | 1610 | 2760 | 1.7 | 1370
4 | COc1cccc2c1C(=O)c1c(O)c3c(c(O)c1C2=O)C[C@@](O)(C(=O)CO)C[C@@H]3O[C@H]1C[C@H](N)[C@H](O)[C@H](C)O1 [DOXORUBICIN] | 21 | 7010 | 333.8 | 33
